Results taken from patent US20260022142A1, “MACROCYCLIC IMMUNOMODULATORS” (Bristol-Myers Squibb Company, priority 2022, published 2026).
pIC50: −log10 of the molar value. Numbered stars: 1 amine (or outer) side, 2 acyl side, 3 side chain; on linkers, the order of the positions; unused ones are H or OH. Bridge positions count the residues as written; N and C are the ends. Square brackets hold non-standard residues; d marks the D form. Peptide text beside a SMILES is read from it. * marks the point of attachment. ξ: configuration not given here. Phe(4-CH2CH2COOH) = N[C@@H](Cc1ccc(CCC(=O)O)cc1)C(=O)O; Phe(3-CF3) = N[C@@H](Cc1cccc(C(F)(F)F)c1)C(=O)O; Phe(4-COOH) = N[C@@H](Cc1ccc(C(=O)O)cc1)C(=O)O; Bip = N[C@@H](Cc1ccc(-c2ccccc2)cc1)C(=O)O; NH(CH2)14COOH = O=C(O)CCCCCCCCCCCCCCN*; Phe(3-Me) = Cc1cccc(C[C@H](N)C(=O)O)c1; Phe(4-F) = N[C@@H](Cc1ccc(F)cc1)C(=O)O; βAsp = O=C(O)[C@H](CC(=O)[*:2])N[*:1]; Val(3-OH) = CC(C)(O)[C@H](N)C(=O)O; 3Pal = N[C@@H](Cc1cccnc1)C(=O)O; 4Pal = N[C@@H](Cc1ccncc1)C(=O)O; Cha = N[C@@H](CC1CCCCC1)C(=O)O; Cit = NC(=O)NCCC[C@H](N)C(=O)O; Ile(3ξ) = CCC(C)[C@H](N)C(=O)O; Thr(3ξ) = CC(O)[C@H](N)C(=O)O; Carboxymethyl = O=C(O)C*; Orn = NCCC[C@H](N)C(=O)O; Aun = NCCCCCCCCCCC(=O)O; Dab = NCC[C@H](N)C(=O)O; Nva = CCC[C@H](N)C(=O)O; Dap = NC[C@H](N)C(=O)O; AEEA = NCCOCCOCC(=O)O

Biological target: T1, PD-1/PD-L1 interaction (PE-labeled human PD-L1-Ig binding to Jurkat cell line over-expressing human PD-1) (Homo sapiens, UniProt Q15116)
T1 construct: expressed in transfected cells; host or cells: Jurkat
Assay: Jurkat-PD-1 Cell Binding High-Content Screening Assay (CBA)
Assay type: cell-based
Conditions: Jurkat cell line over-expressing human PD-1; PE-labeled PD-L1-Ig 20 nM final; read-out: Jurkat hPD1-PDL1 IC50
Outline: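 First, compound is added to PD-1-expressing Jurkat cells in serum-containing DMEM and left 2 h at 37° C. Next, PE-conjugated PD-L1-Ig is introduced at 20 nM final concentration for 1 hour. Finally, cells are fixed in 4% paraformaldehyde with Hoechst 33342, washed and imaged.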

T1 sequence (Q15116 25-288): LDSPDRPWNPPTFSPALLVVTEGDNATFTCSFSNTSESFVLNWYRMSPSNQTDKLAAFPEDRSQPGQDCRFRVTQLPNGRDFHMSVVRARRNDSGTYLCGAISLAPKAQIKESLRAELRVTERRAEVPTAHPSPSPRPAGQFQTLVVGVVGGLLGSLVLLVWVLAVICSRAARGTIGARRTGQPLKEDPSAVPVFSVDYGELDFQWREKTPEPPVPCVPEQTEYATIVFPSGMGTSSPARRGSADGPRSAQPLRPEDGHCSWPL

Row | Compound | pIC50
1 | Cc1cccc(C[C@@H]2NC(=O)[C@H](CC(=O)O)NC(=O)[C@H](Cc3ccc(OCC(=O)O)cc3)NC(=O)[C@H](CN)NC(=O)CSC[C@@H](C(=O)N[C@@H](CCCCN)C(=O)NCCOCCOCC(=O)NCCCCCCCCCCC(=O)O)NC(=O)[C@H](CN)NC(=O)[C@H](C(C)C)NC(=O)[C@H](CC3CCCCC3)NC(=O)[C@H](CCN)NC(=O)[C@@H](CC(C)C)NC(=O)[C@H](CCCN)NC(=O)[C@H](C(C)C)NC(=O)[C@H](Cc3ccc(-c4ccccc4)cc3)NC(=O)[C@H](C(C)C)NC2=O)c1 [Compound 2526] ({CH2CO}-[Dap]Y(Carboxymethyl)D[Phe(3-Me)]V[Bip]V[Orn][dL][Dab][Cha]V[Dap]CK[AEEA][Aun]-OH; thioether N-14) | 8.14
2 | Cc1cccc(C[C@@H]2NC(=O)[C@H](CC(=O)O)NC(=O)[C@H](Cc3ccc(OCC(=O)O)cc3)NC(=O)[C@H](CN)NC(=O)CSC[C@@H](C(=O)N[C@@H](CCN)C(=O)NCCOCCOCC(=O)NCCCCCCCCCCC(=O)O)NC(=O)[C@H](CCC(=O)O)NC(=O)[C@H](C(C)C)NC(=O)[C@H](Cc3ccc(F)cc3)NC(=O)[C@H](CCN)NC(=O)[C@@H](CC(C)C)NC(=O)[C@H](CCCN)NC(=O)[C@H](Cc3ccc(OCC(=O)O)cc3)NC(=O)[C@H](Cc3ccc(-c4ccccc4)cc3)NC(=O)[C@H](Cc3ccc(C(=O)O)cc3)NC2=O)c1 [Compound 1270] ({CH2CO}-[Dap]Y(Carboxymethyl)D[Phe(3-Me)][Phe(4-COOH)][Bip]Y(Carboxymethyl)[Orn][dL][Dab][Phe(4-F)]VEC[Dab][AEEA][Aun]-OH; thioether N-14) | 7.32
3 | Cc1cccc(C[C@@H]2NC(=O)[C@H](CC(=O)O)NC(=O)[C@H](Cc3ccc(OCC(=O)O)cc3)NC(=O)[C@H](Cc3cccnc3)NC(=O)CSC[C@@H](C(=O)N[C@@H](CCN)C(=O)NCCCCCCCCCCC(=O)O)NC(=O)[C@H](CO)NC(=O)[C@H](C(C)C)NC(=O)[C@H](CC3CCCCC3)NC(=O)[C@H](CCN)NC(=O)[C@@H](CC(C)C)NC(=O)[C@H](CCCN)NC(=O)[C@H](Cc3ccc(OCC(=O)O)cc3)NC(=O)[C@H](Cc3ccc(-c4ccccc4)cc3)NC(=O)[C@H](C(C)(C)O)NC2=O)c1 [Compound 2149] ({CH2CO}-[3Pal]Y(Carboxymethyl)D[Phe(3-Me)][Val(3-OH)][Bip]Y(Carboxymethyl)[Orn][dL][Dab][Cha]VSC[Dab][Aun]-OH; thioether N-14) | 7.26
4 | CCC[C@@H]1NC(=O)CSC[C@@H](C(=O)N[C@@H](CCN)C(=O)NCCCCCCCCCCCCCCC(=O)O)NC(=O)[C@H](CO)NC(=O)[C@H](C(C)(C)O)NC(=O)[C@H](CC2CCCCC2)NC(=O)[C@H](CCN)NC(=O)[C@@H](CC(C)C)NC(=O)[C@H](CCCN)NC(=O)[C@H](Cc2ccc(OCC(=O)O)cc2)NC(=O)[C@H](Cc2ccc(-c3ccccc3)cc2)NC(=O)[C@H](Cc2ccc(OCC(=O)O)cc2)NC(=O)[C@H](Cc2cccc(C(F)(F)F)c2)NC(=O)[C@H](CC(=O)O)NC(=O)[C@H](Cc2ccc(C(=O)O)cc2)NC1=O [Compound 2904] ({CH2CO}-[Nva][Phe(4-COOH)]D[Phe(3-CF3)]Y(Carboxymethyl)[Bip]Y(Carboxymethyl)[Orn][dL][Dab][Cha][Val(3-OH)]SC[Dab]-{NH(CH2)14COOH}; thioether N-14) | 6.29
5 | CC[C@H](C)[C@@H]1NC(=O)[C@H](Cc2ccc(-c3ccccc3)cc2)NC(=O)[C@H](C(C)C)NC(=O)[C@H](Cc2cccc(C)c2)NC(=O)[C@H](CC(=O)O)NC(=O)[C@H](Cc2ccc(C(=O)O)cc2)NC(=O)[C@H](Cc2ccncc2)NC(=O)CSC[C@@H](C(=O)NCCOCCOCC(=O)N[C@@H](CCCCN)C(=O)NCCCCCCCCCCC(=O)O)NC(=O)[C@H]([C@@H](C)O)NC(=O)[C@H](C(C)C)NC(=O)[C@H](CC2CCCCC2)NC(=O)[C@H](CCN)NC(=O)[C@@H](CC(C)C)NC(=O)[C@H](CCCN)NC1=O [Compound 1191] ({CH2CO}-[4Pal][Phe(4-COOH)]D[Phe(3-Me)]V[Bip]I[Orn][dL][Dab][Cha]VTC[AEEA]K[Aun]-OH; thioether N-14) | 7.71
6 | Cc1cccc(C[C@@H]2NC(=O)[C@H](CC(=O)O)NC(=O)[C@H](Cc3ccc(OCC(=O)O)cc3)NC(=O)[C@H](CCCNC(=N)N)NC(=O)CSC[C@@H](C(=O)N[C@@H](CCN)C(=O)NCCCCCCCCCCC(=O)O)NC(=O)[C@H](CCC(N)=O)NC(=O)[C@H](C(C)C)NC(=O)[C@H](CC3CCCCC3)NC(=O)[C@H](CCN)NC(=O)[C@@H](CC(C)C)NC(=O)[C@H](CCCN)NC(=O)[C@H](Cc3ccc(OCC(=O)O)cc3)NC(=O)[C@H](Cc3ccc(-c4ccccc4)cc3)NC(=O)[C@H](Cc3ccc(CCC(=O)O)cc3)NC2=O)c1 [Compound 2129] ({CH2CO}-RY(Carboxymethyl)D[Phe(3-Me)][Phe(4-CH2CH2COOH)][Bip]Y(Carboxymethyl)[Orn][dL][Dab][Cha]VQC[Dab][Aun]-OH; thioether N-14) | 8.22
7 | CC(C)C[C@H]1NC(=O)[C@H](CCCN)NC(=O)[C@H](C(C)C)NC(=O)[C@H](Cc2ccc(-c3ccccc3)cc2)NC(=O)[C@H](C(C)C)NC(=O)[C@H](Cc2c[nH]c3ccccc23)NC(=O)[C@H](CC(=O)O)NC(=O)[C@H](Cc2ccc(OCC(=O)O)cc2)NC(=O)[C@H](CN)NC(=O)CSC[C@@H](C(=O)N[C@@H](CCN)C(=O)NCCCCCCCCCCC(=O)O)NC(=O)[C@H](CCC(=O)O)NC(=O)[C@H](C(C)C)NC(=O)[C@H](CC2CCCCC2)NC(=O)[C@H](Cc2c[nH]cn2)NC1=O [Compound 2788] ({CH2CO}-[Dap]Y(Carboxymethyl)DWV[Bip]V[Orn][dL]H[Cha]VEC[Dab][Aun]-OH; thioether N-14) | 7.65
8 | Cc1cccc(C[C@@H]2NC(=O)[C@H](CC(=O)O)NC(=O)[C@H](Cc3ccc(OCC(=O)O)cc3)NC(=O)[C@H](CN)NC(=O)CSC[C@@H](C(=O)N[C@@H](C)C(=O)N[C@@H](CC(=O)NCCOCCOCC(=O)NCCCCCCCCCCC(=O)O)C(=O)O)NC(=O)[C@H]([C@@H](C)O)NC(=O)[C@H](C(C)C)NC(=O)[C@H](CC3CCCCC3)NC(=O)[C@H](CCN)NC(=O)[C@@H](CC(C)C)NC(=O)[C@H](CCCN)NC(=O)[C@H](CCCNC(N)=O)NC(=O)[C@H](Cc3ccc(-c4ccccc4)cc3)NC(=O)[C@H](C(C)C)NC2=O)c1 [Compound 1010] ({CH2CO}-[Dap]Y(Carboxymethyl)D[Phe(3-Me)]V[Bip][Cit][Orn][dL][Dab][Cha]VTCA[βAsp][AEEA][Aun]-OH; thioether N-14) | 8.20

Other lines, results leading:

Row | pIC50 | Compound
9 | 7.98 | CCC(C)[C@@H]1NC(=O)[C@H](CC2CCCCC2)NC(=O)[C@H](CCN)NC(=O)[C@@H](CC(C)C)NC(=O)[C@H](CCCN)NC(=O)[C@H](C(C)CC)NC(=O)[C@H](Cc2ccc(-c3ccccc3)cc2)NC(=O)[C@H](C(C)CC)NC(=O)[C@H](Cc2c[nH]c3ccccc23)NC(=O)[C@H](CC(=O)O)NC(=O)[C@H](Cc2ccc(OCC(=O)O)cc2)NC(=O)[C@H](C(C)O)NC(=O)CSC[C@@H](C(=O)N[C@@H](CN)C(=O)NCCOCCOCC(=O)N[C@@H](CCCN)C(=O)NCCCCCCCCCCC(=O)O)NC(=O)[C@H](CO)NC1=O (stereo partly drawn) [Compound 3121] ({CH2CO}-[Thr(3ξ)]Y(Carboxymethyl)DW[Ile(3ξ)][Bip][Ile(3ξ)][Orn][dL][Dab][Cha][Ile(3ξ)]SC[Dap][AEEA][Orn][Aun]-OH; thioether N-14)
10 | 6.05 | CC(C)C[C@@H]1NC(=O)[C@H](Cc2c[nH]c3ccccc23)NC(=O)[C@H](CC(=O)O)NC(=O)[C@H](Cc2ccc(C(=O)O)cc2)NC(=O)[C@H](C(C)O)NC(=O)CSC[C@@H](C(=O)N[C@@H](C)C(=O)N[C@@H](CCN)C(=O)NCCCCCCCCCCCCCCC(=O)O)NC(=O)[C@H](CO)NC(=O)[C@H](C(C)C)NC(=O)[C@H](CC2CCCCC2)NC(=O)[C@H](Cc2c[nH]cn2)NC(=O)[C@@H](CC(C)C)NC(=O)[C@H](CCCN)NC(=O)[C@H](C(C)C)NC(=O)[C@H](Cc2ccc(-c3ccccc3)cc2)NC1=O (stereo partly drawn) [Compound 3024] ({CH2CO}-[Thr(3ξ)][Phe(4-COOH)]DWL[Bip]V[Orn][dL]H[Cha]VSCA[Dab]-{NH(CH2)14COOH}; thioether N-14)
11 | 8.03 | CCC(C)[C@@H]1NC(=O)[C@H](Cc2ccc(-c3ccccc3)cc2)NC(=O)[C@H](C(C)C)NC(=O)[C@H](Cc2c[nH]c3ccccc23)NC(=O)[C@H](CC(=O)O)NC(=O)[C@H](Cc2ccc(OCC(=O)O)cc2)NC(=O)[C@H](CCCNC(=N)N)NC(=O)CSC[C@@H](C(=O)N[C@H](CC(N)=O)C(=O)NCCCCCCCCCCC(=O)O)NC(=O)[C@H](CCCN)NC(=O)[C@H](C(C)C)NC(=O)[C@H](CC2CCCCC2)NC(=O)[C@H](CCN)NC(=O)[C@@H](CC(C)C)NC(=O)[C@H](CCN)NC1=O (stereo partly drawn) [Compound 3285] ({CH2CO}-RY(Carboxymethyl)DWV[Bip][Ile(3ξ)][Dab][dL][Dab][Cha]V[Orn]C[dN][Aun]-OH; thioether N-14)
12 | 8.36 | CC(=O)NCCCC[C@@H]1NC(=O)[C@H](Cc2ccc(-c3ccccc3)cc2)NC(=O)[C@H](Cc2ccc(O)cc2)NC(=O)[C@H](Cc2cccc(C)c2)NC(=O)[C@H](CC(=O)O)NC(=O)[C@H](Cc2ccc(OCC(=O)O)cc2)NC(=O)[C@H](CCCNC(=N)N)NC(=O)CSC[C@@H](C(=O)N[C@@H](CCN)C(=O)NCCCCCCCCCCC(=O)O)NC(=O)[C@H](CCCNC(N)=O)NC(=O)[C@H](C(C)C)NC(=O)[C@H](CC2CCCCC2)NC(=O)[C@H](CCN)NC(=O)[C@@H](CC(C)C)NC(=O)[C@H](CCCN)NC1=O [Compound 3386] ({CH2CO}-RY(Carboxymethyl)D[Phe(3-Me)]Y[Bip]K(Ac)[Orn][dL][Dab][Cha]V[Cit]C[Dab][Aun]-OH; thioether N-14)
13 | 7.52 | CC(C)C[C@@H]1NC(=O)[C@H](Cc2c[nH]c3ccccc23)NC(=O)[C@H](CC(=O)O)NC(=O)[C@H](Cc2ccc(OCC(=O)O)cc2)NC(=O)[C@H](CN)NC(=O)CSC[C@@H](C(=O)N[C@@H](CCN)C(=O)NCCCCCCCCCCC(=O)O)NC(=O)[C@H](Cc2cnc[nH]2)NC(=O)[C@H](C(C)O)NC(=O)[C@H](CC2CCCCC2)NC(=O)[C@H](CCN)NC(=O)[C@@H](CC(C)C)NC(=O)[C@H](CCCN)NC(=O)[C@H](C(C)C)NC(=O)[C@H](Cc2ccc(-c3ccccc3)cc2)NC1=O (stereo partly drawn) [Compound 3689] ({CH2CO}-[Dap]Y(Carboxymethyl)DWL[Bip]V[Orn][dL][Dab][Cha][Thr(3ξ)]HC[Dab][Aun]-OH; thioether N-14)
